How the values were obtained:
Assay type in all cases: cell-based
TRPV1 [1] = biological target: T1, TRPV1 (Rattus norvegicus, UniProt O35433); test: Whole-cell patch clamp in single HEK293 cells overexpressing TRPV1; settings: for outward current relative to inward current: then 1 μM capsaicin; for inward current: average of 6 independent experiments
T1 construct: FLAG; expressed in transfected cells; host or cells: TRex HEK293 (HEK293 stably carrying pcDNA6TR), induced with tetracycline
Protocol: HEK293 cells were kept in sodium-based extracellular Ringer's solution containing 140 mM NaCl, 1 mM CaCl2, 2 mM MgCl2, 2.8 mM KCl, 11 mM glucose, and 10 mM HEPES-NaOH, pH 7.2 and osmolarity 300 mOsmol. The cells' cytosol was perfused with intracellular patch pipette solution containing 140 mM Cs-glutamate, 8 mM NaCl, 1 mM MgCl2, 3 mM MgATP, and 10 mM HEPES-CsOH. The standard internal Ca^2+ concentration was buffered to 180 nM with 4 mM Ca and 10 mM BAPTA. The level of free unbuffered Ca was adjusted using the calculator provided with WebMaxC (http://www.stanford.edu/˜cpatton/webmaxcS.htm). The pH of the final solution was adjusted to pH 7.2 and osmolarity measured at 300 mOsmol.
1 μM capsaicin was used as a positive control for TRPV1 activation. Rapid extracellular solution application and exchange was performed with the SmartSquirt delivery system (Auto-Mate Scientific, San Francisco). The system includes a ValveLink TTL interface between the electronic valves and the EPC-9 amplifier (HEKA, Lambrecht, Germany). This configuration allows for programmable solution changes via the PatchMaster software (HEKA, Lambrecht, Germany).
Patch-clamp experiments were performed in the whole-cell configuration at 21-25° C. Patch pipettes had resistances of 2-3 MΩ. Data was acquired with PatchMaster software controlling an EPC-9 amplifier. Voltage ramps of 50 ms spanning the voltage range from −100 to 100 mV were delivered from a holding potential of 0 mV at a rate of 0.5 Hz over a period of […]. Voltages were corrected for a liquid junction potential of 10 mV. Currents were filtered at 2.9 kHz and digitized at 100 μs is intervals. Capacitive currents were determined and corrected before each voltage ramp. The development of currents for a given potential was extracted from individual ramp current records by measuring the current amplitudes at voltages of −80 mV and +80 mV. Data were analyzed with FitMaster (HEKA, Lambrecht, Germany), and IgorPro (WaveMetrics, Lake Oswego, Oreg., USA). Where applicable, statistical errors of averaged data are given as mean±s.e.m.

TRPV1 [2] = biological target: T1, TRPV1; test: TRPV1-mediated calcium flux (Fluo-4) in HEK cells inducibly expressing TRPV1; settings: for suppression of later calcium response by pre-incubation (desensitization): 24 hours pre-incubation with the same compound; for AUC of calcium response curve, first application: AUC (between 20-300 nM), compound first introduced to TRPV1-expressing cells; for concentration inducing calcium influx to a similar degree (by AUC): AUC between 20 and 300 nM of calcium response curves; for AUC of calcium response after 24 hours incubation with the same compound: cells incubated with compound for 24 hours, then re-stimulated; for calcium flux (Fluo-4 RFU) in TRPV1-expressing HEK cells: stimulus applied to cell culture medium, mixtures at Table 1 concentrations
Protocol: The HEK293 cell line was stably transfected with the pcDNA6TR (Invitrogen, CA) plasmid (encoding the tetracycline-sensitive TREx repressor protein), and was maintained in DMEM+10% fetal bovine serum (inactivated at 55° C. for 1 h)+2 mM glutamine in humidified 5% CO2 atmosphere at 37° C. Selection pressure on the TRex 293 cells was maintained by continuous culture in 10 μg/ml Blasticidin (Sigma, St Louis, Mo.).
For production of TRex HEK293 cells with inducible expression of TRPV1, parental cells were electroporated with the rat TRPV1 cDNA in the pcDNA4TO vector and clonal cell lines were selected by limiting dilution in the presence of 400 μg/ml zeocin (Invitrogen, CA). TRPV1 expression was induced using 1 μg/ml tetracycline for 16 h at 37° C.
(§1) Calcium responses mediated by TRPV1 were tested by calcium assay in the cell culture system. Cells were washed and incubated with 0.2 μM fluo-4 acetoxymethyl ester (“Fluo-4”) for 30 minutes at 37° C. in a standard modified Ringer's solution of the following composition (in mM): NaCl 145, KCl 2.8, CsCl 10, CaCl2 10, MgCl2 2, glucose 10, Hepes.NaOH 10, pH 7.4, 330 mOsm. Cells were transferred to 96-well plates at 50,000 cells/well and stimulated as indicated. Calcium signals were acquired using a Flexstation 3 (Molecular Devices, Sunnydale, USA). Data was analyzed using SoftMax® Pro 5 (Molecular Devices). Where indicated, nominally calcium-free external conditions were achieved by the preparation of 0 mM CaCl2 Ringer solution containing 1 mM EGTA. Where indicated, capsaicin (10 μM) and ionomycin (500 nM) were used as positive controls to induce calcium responses. Capsazepine (10 μM) was used where indicated to specifically antagonize TRPV1-mediated calcium responses. Where indicated, baseline traces (no stimulation, NS) were subtracted. Where indicated, vehicle alone traces were subtracted. Where indicated, vehicle comprising various diluents matched to corresponding mixtures was used as a negative control.

HEK wild type cells = test: Calcium flux (Fluo-4) in wild-type HEK cells without TRPV1 construct; settings: same stimulus conditions as TRPV1-expressing cells
Protocol: as §1

[3] = pre-incubation with 500 nM ionomycin

T1 sequence (O35433 whole entry): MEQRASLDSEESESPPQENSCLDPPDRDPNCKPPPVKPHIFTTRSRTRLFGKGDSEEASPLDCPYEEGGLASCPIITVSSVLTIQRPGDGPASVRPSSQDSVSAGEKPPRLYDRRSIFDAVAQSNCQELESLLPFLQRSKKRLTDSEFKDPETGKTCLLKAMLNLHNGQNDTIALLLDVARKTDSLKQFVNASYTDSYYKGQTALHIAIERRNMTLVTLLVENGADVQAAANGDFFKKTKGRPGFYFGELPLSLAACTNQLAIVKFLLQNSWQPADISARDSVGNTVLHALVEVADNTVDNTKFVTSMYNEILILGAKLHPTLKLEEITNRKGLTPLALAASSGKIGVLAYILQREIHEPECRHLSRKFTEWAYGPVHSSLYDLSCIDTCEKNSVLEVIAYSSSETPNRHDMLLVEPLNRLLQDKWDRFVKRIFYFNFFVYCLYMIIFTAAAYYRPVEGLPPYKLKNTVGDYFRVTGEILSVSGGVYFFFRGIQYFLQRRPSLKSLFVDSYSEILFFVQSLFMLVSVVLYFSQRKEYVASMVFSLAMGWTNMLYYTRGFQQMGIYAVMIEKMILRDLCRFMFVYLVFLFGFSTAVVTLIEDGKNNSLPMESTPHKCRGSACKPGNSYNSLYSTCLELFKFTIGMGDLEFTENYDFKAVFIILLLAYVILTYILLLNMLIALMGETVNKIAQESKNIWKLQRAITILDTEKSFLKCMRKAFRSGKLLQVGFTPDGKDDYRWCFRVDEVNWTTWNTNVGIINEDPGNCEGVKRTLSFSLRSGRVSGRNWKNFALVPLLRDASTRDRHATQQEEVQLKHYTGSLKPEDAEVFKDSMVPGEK

For `C=CC(=C)CCC=C(C)C` [myrcene, 7-methyl-3-methylideneocta-1,6-diene], the “outward current relative to inward current” value (TRPV1 [1]; 5 μM myrcene) was “at a lower amplitude than the inward current”, the inward current (TRPV1 [1]; 5 μM myrcene, 1 mM Ca) was “approximately 0.5 nA” and the current induced (TRPV1 [1]; 5 μM, 10 μM and 150 μM myrcene) was 0.5-2.2 nA. The “current response in individual cells to increasing myrcene” value (TRPV1 [1]; 5 μM, 10 μM, 150 μM myrcene) was “dose-dependent response”, the “TRPV1 channel permeation state activated” value (TRPV1 [1]; IV relationship, State 1 vs State 2 (dilated)) was “primarily in State 1” and the “suppression of later calcium response by pre-incubation (desensitization)” value (TRPV1 [2]) was 52%. The “AUC of calcium response curve, first application” value (“AUC of calcium response curve” below) (TRPV1 [2]) was 66, the “concentration inducing calcium influx to a similar degree (by AUC)” value (TRPV1 [2]) was “about 200 nM” and the “AUC of calcium response after 24 hours incubation with the same compound” value (TRPV1 [2]) was 32. For the same molecule, the “calcium-mediated fluorescence under calcium-free medium conditions, high concentration” value (TRPV1 [2]; myrcene 3.5 μg/ml, calcium-free medium) was “induced such increase”, the “calcium-mediated fluorescence under calcium-free medium conditions, low concentrations” value (TRPV1 [2]; myrcene 0.43, 0.875 and 1.75 μg/ml, calcium-free medium) was “did not cause increase of calcium-mediated fluorescence” and the “calcium responses to different concentrations of myrcene” value (TRPV1 [2]; myrcene 3.5 μm/ml, 1.75 μg/ml, 0.875 μm/ml and 0.43 μm/ml) was “dose-dependent”. The “calcium flux (Fluo-4 RFU) in TRPV1-expressing HEK cells” value (shortened to “calcium flux (Fluo-4 RFU)”) (TRPV1 [2]) was “significant calcium flux was detected” and the “calcium flux in wild-type HEK cells without TRPV1” value (HEK wild type cells) was “much smaller”.
`C=CC(C)(O)CCC=C(C)CCC=C(C)C` (centres unmarked) [nerolidol] was tested, and the “calcium flux (Fluo-4 RFU)” value (TRPV1 [2]) was “significant calcium flux was detected” and the “calcium flux (Fluo-4 RFU)” value (TRPV1 [2]; listed as Nerolidol) was “more modest agonist activity”.
In the case of `CCCCCc1cc(O)c(C/C=C(\C)CCC=C(C)C)c(O)c1C(=O)O` [cannabigerolic acid], the “calcium flux (Fluo-4 RFU)” value (TRPV1 [2]) is reported as “calcium flux was detected” and the “calcium flux in wild-type HEK cells without TRPV1” value (HEK wild type cells) is reported as “only minimal or absent”.
With `COc1cc(CNC(=O)CCCC/C=C/C(C)C)ccc1O` [capsaicin, reference compound] the current induced (TRPV1 [1]; 1 μM capsaicin (not shown)) was 4-10 nA, the inward current (TRPV1 [1]; 1 μM capsaicin applied after myrcene) was “approximately 9 nA” and the “outward current relative to inward current” value (TRPV1 [1]; 5 μM myrcene) was “at a lower amplitude than the inward current”. For the same molecule, the “suppression of later calcium response by pre-incubation (desensitization)” value (TRPV1 [2]) was 69%, the “AUC of calcium response curve” value (TRPV1 [2]) was 124 and the “concentration inducing calcium influx to a similar degree (by AUC)” value (TRPV1 [2]) was “about 30 nM”. For the same molecule, the “AUC of calcium response after 24 hours incubation with the same compound” value (TRPV1 [2]) was 38 and the “calcium flux (Fluo-4 RFU)” value (TRPV1 [2]) was “capsaicin-specific calcium fluxes”.
`C[C@H](CCC(=O)O)C[C@H](C)C[C@H](C)C(=O)/C=C(\O)[C@H](C)C[C@H](C)C/C=C/[C@@H](C)[C@@H](O)[C@@H](C)[C@@H](O)C[C@@H]1CC[C@@](C)([C@H]2CC[C@@](C)([C@@H](C)O)O2)O1` [ionomycin, reference compound] was tested, and the “AUC of calcium response curve” value (TRPV1 [2]) was 128, the “reduction of later calcium influx in response to capsaicin” value (TRPV1 [2]; [3]) was 38% and the “reduction of later calcium influx in response to myrcene” value (TRPV1 [2]; [3]) was 27%.
For `C=C(C)[C@@H]1CCC(C)=C[C@H]1c1c(O)cc(CCC)cc1O` [cannabidivarin], the “calcium flux (Fluo-4 RFU)” value (TRPV1 [2]) was “calcium flux was detected” and the “calcium flux in wild-type HEK cells without TRPV1” value (HEK wild type cells) was “only minimal or absent”.
For `CCCCCc1cc(O)c2c(c1)OC(C)(CCC=C(C)C)C=C2` (centres unmarked) [cannabichromene], the “calcium flux (Fluo-4 RFU)” value (TRPV1 [2]) was “calcium flux was detected” and the “calcium flux in wild-type HEK cells without TRPV1” value (HEK wild type cells) was “only minimal or absent”.
`Oc1cc2c(cc1O)CN(C(=S)NCCc1ccc(Cl)cc1)CCC2` [capsazepine, reference compound] was tested, and the “effect on calcium flux induced by myrcene” value (TRPV1 [2]; 10 μM capsazepine added to cells activated with 3.5 μm/ml myrcene) was “diminished”.
`C=C(C)[C@@H]1CCC(C)=C[C@H]1c1c(O)cc(CCCCC)c(C(=O)O)c1O` [cannabidiolic acid] was tested, and the “calcium flux (Fluo-4 RFU)” value (TRPV1 [2]) was “calcium flux was detected” and the “calcium flux in wild-type HEK cells without TRPV1” value (HEK wild type cells) was “only minimal or absent”.
With `C=C(C)[C@@H]1CCC(C)=C[C@H]1c1c(O)cc(CCCCC)cc1O` [cannabidiol] the “calcium flux (Fluo-4 RFU)” value (TRPV1 [2]) was “calcium flux was detected” and the “calcium flux in wild-type HEK cells without TRPV1” value (HEK wild type cells) was “only minimal or absent”.

From patent US11944593B2, “Myrcene-containing complex mixtures targeting TRPV1” (GBS GLOBAL BIOPHARMA, INC., priority 2017, dated 2024)
